Reference: the NIST ThermoML archive (doi:10.1021/je700499d)

How the values were obtained:
[1] = 101 kPa, Liquid
[2] = xn = mol fraction of the nth substance listed; conditions: 101 kPa, Liquid

OCCO [1,2-ethanediol]
[1]
Conditions	mass density [kg/m3]
293.15 K	1113.55
303.15 K	1106.82
313.15 K	1099.8
323.15 K	1092.59

OCCO [1,2-ethanediol] + OCCCCO
[2], x2 = 0
Conditions	mass density [kg/m3]
293.15 K	1113.55
303.15 K	1106.82
313.15 K	1099.8
323.15 K	1092.59

CC(O)CO (stereo not drawn) [1,2-propanediol]
[1]
Conditions	mass density [kg/m3]
293.15 K	1036.57
298.15 K	1032.86
303.15 K	1029.15
308.15 K	1025.57
313.15 K	1021.44
318.15 K	1017.59
323.15 K	1013.74
328.15 K	1009.71

CC(O)CO (stereo not drawn) [1,2-propanediol] + OCCCCO
[2], x2 = 0
Conditions	mass density [kg/m3]
293.15 K	1036.57
298.15 K	1032.86
303.15 K	1029.15
308.15 K	1025.57
313.15 K	1021.44
318.15 K	1017.59
323.15 K	1013.74
328.15 K	1009.71

OCCCCO [1,4-butanediol]
[1]
Conditions	mass density [kg/m3]
293.15 K	1016.37
298.15 K	1013.04
303.15 K	1009.96
308.15 K	1006.75
313.15 K	1003.55
318.15 K	1000.72
323.15 K	997.8
328.15 K	994.41

OCCCCO [1,4-butanediol] + CC(O)CO
mass density [kg/m3], [2]
Conditions	x1 = 0.0858	x1 = 0.1743	x1 = 0.2657	x1 = 0.3602	x1 = 0.4578	x1 = 0.5588	x1 = 0.6633	x1 = 0.7716	x1 = 0.8837	x1 = 1
293.15 K	1034.9	1033.19	1031.46	1029.77	1027.85	1025.52	1023.19	1020.85	1018.55	1016.37
298.15 K	1031.31	1029.67	1028	1026.34	1024.48	1022.17	1019.88	1017.57	1015.25	1013.04
303.15 K	1027.73	1026.21	1024.62	1023.01	1021.19	1018.94	1016.79	1014.47	1012.17	1009.96
308.15 K	1024.25	1022.83	1021.31	1019.74	1018	1015.76	1013.64	1011.33	1009.03	1006.75
313.15 K	1020.28	1019	1017.64	1016.12	1014.43	1012.35	1010.33	1008.06	1005.78	1003.55
318.15 K	1016.58	1015.49	1014.21	1012.83	1011.22	1009.28	1007.33	1005.16	1002.94	1000.72
323.15 K	1012.91	1011.97	1010.78	1009.47	1007.97	1006.13	1004.3	1002.18	1000.03	997.8
328.15 K	1009	1008.2	1007.11	1005.84	1004.39	1002.63	1000.83	998.81	996.69	994.41

OCCCCO [1,4-butanediol] + OCCCO
[2], x1 = 1
Conditions	mass density [kg/m3]
293.15 K	1016.37
298.15 K	1013.04
303.15 K	1009.96
308.15 K	1006.75
313.15 K	1003.55
318.15 K	1000.72
323.15 K	997.8
328.15 K	994.41

OCCCCO [1,4-butanediol] + OCCO
mass density [kg/m3], [2]
Conditions	x1 = 0.0711	x1 = 0.1469	x1 = 0.2279	x1 = 0.3147	x1 = 0.4078	x1 = 0.5081	x1 = 0.6164	x1 = 0.7337	x1 = 0.8611	x1 = 1
293.15 K	1102.71	1092.13	1081.71	1071.48	1061.52	1051.91	1042.67	1033.74	1024.96	1016.37
298.15 K	1099.09	1088.58	1078.21	1068.02	1058.12	1048.56	1039.34	1030.4	1021.64	1013.04
303.15 K	1096.06	1085.57	1075.22	1065.04	1055.16	1045.58	1036.35	1027.39	1018.61	1009.96
308.15 K	1092.51	1082.1	1071.84	1061.7	1051.85	1042.33	1033.12	1024.17	1015.41	1006.75
313.15 K	1089.15	1078.8	1068.56	1058.5	1048.65	1039.15	1029.95	1020.99	1012.22	1003.55
318.15 K	1085.69	1075.44	1065.32	1055.33	1045.62	1036.15	1027.01	1018.1	1009.36	1000.72
323.15 K	1082.18	1072.03	1061.97	1052.09	1042.43	1033.05	1023.96	1015.11	1006.4	997.8
328.15 K	1078.33	1068.25	1058.28	1048.46	1038.86	1029.53	1020.51	1011.66	1002.99	994.41

OCCCO [propan-1,3-diol]
[1]
Conditions	mass density [kg/m3]
293.15 K	1053.66
298.15 K	1050.29
303.15 K	1047.09
308.15 K	1043.92
313.15 K	1040.61
318.15 K	1037.6
323.15 K	1034.51
328.15 K	1031

OCCCO [propan-1,3-diol] + OCCCCO
mass density [kg/m3], [2]
Conditions	293.15 K	298.15 K	303.15 K	308.15 K	313.15 K	318.15 K	323.15 K	328.15 K
x2 = 0	1053.66	1050.29	1047.09	1043.92	1040.61	1037.6	1034.51	1031
x2 = 0.0858	1049.89	1046.56	1043.39	1040.26	1036.99	1034.04	1030.99	1027.53
x2 = 0.1743	1046.21	1042.87	1039.74	1036.61	1033.39	1030.48	1027.5	1024.08
x2 = 0.2657	1042.49	1039.2	1036.07	1032.95	1029.75	1026.88	1023.9	1020.5
x2 = 0.3602	1038.78	1035.48	1032.39	1029.26	1026.07	1023.21	1020.26	1016.86
x2 = 0.4578	1035.05	1031.77	1028.69	1025.57	1022.39	1019.53	1016.6	1013.22
x2 = 0.5523	–	–	1024.89	–	–	–	–	–
x2 = 0.5588	1031.27	1027.98	–	1021.77	1018.61	1015.78	1012.86	1009.51
x2 = 0.6574	–	–	1021.16	–	–	–	–	–
x2 = 0.6633	1027.52	1024.23	–	1018.03	1014.87	1012.06	1009.17	1005.8
x2 = 0.7669	–	–	1017.41	–	–	–	–	–
x2 = 0.7716	1023.77	1020.48	–	1014.27	1011.08	1008.27	1005.36	1001.99
x2 = 0.881	–	–	1013.68	–	–	–	–	–
x2 = 0.8837	1020.05	1016.74	–	1010.51	1007.33	1004.52	1001.61	998.24
